Source: patent publication US4382958A, “Secondary amines and compositions for treatment of hypoglycaemia or obesity” (priority 1980, dated 1983)
Where two headings read alike, the source gives them in different places.

Columns and labels:
[1] = test system: Female CFLP mice; experiment: Effect on energy expenditure and food intake of mice; type: in vivo; details: Mus musculus, % of mice dosed with water; for response vs control in vivo at 18.5 mg/kg: 18.5 mg/kg po; for response vs control in vivo at 22.2 mg/kg: 22.2 mg/kg po; for response vs control in vivo at 24.5 mg/kg: 24.5 mg/kg po
Protocol: Female CFLP mice each weighing approximately 24 g were given food and water ad lib before and during the experiment. The compounds were dissolved in water by addition of one mole of hydrochloric acid per mole of compound and these solutions were administered orally to each of 12 mice. A further 12 mice were dosed orally with water. The mice were placed in boxes through which air was drawn and the oxygen content of the air leaving the boxes was measured. The energy expenditure of the mice was calculated for 21 hours after dosing from the volume of air leaving the boxes and its oxygen content following the principles described by J. B. de V. Weir, J. Physiol. […] The food intake of the mice was measured over this same period of 21 hours. The results are expressed as a percentage of the mean food intake or rate of energy expenditure of the mice dosed with water.

[2] = test system: Female CFLP mice; experiment: Hypoglycaemic activity: blood glucose of fasted mice after subcutaneous glucose; type: in vivo; details: Mus musculus, 2 hour period after glucose, vs control mice given water, read-out: REDUCTION IN AREA UNDER BLOOD GLUCOSE CURVE (%); for inhibition in vivo at 1 µmol/kg: 1.0 μ mol/kg oral
Protocol: Female CFLP mice, weighing approximately 25 g, were fasted for 24 hours prior to the study. The compounds under study were administered orally as an aqueous solution to each of 8 mice. 30 minutes later a blood sample ([…]) was obtained from the tail for the analysis of blood glucose. Immediately after taking this blood sample, glucose (1 g/kg body weight) was administered subcutaneously to each mouse. 8 mice were given water as a control. Blood samples were then obtained from each mouse at 30 minute intervals for 120 minutes.
Compounds that produced a significant (P<0.05) reduction on blood glucose, compared with control mice given water, at any time interval, were considered active. The area under the blood glucose curve over the 2 hour period after the administration of the glucose was calculated for each compound and compared with the value for control animals.

[3] = test system: rat ear; experiment: Topical anti-inflammatory activity: croton oil inflammation of the rat ear; type: in vivo; details: 6 hours, activity = significant (5% level) reduction in ear weight vs non-drug treated control
Protocol: The method used is based on that described by G. Tonelli et al (Endocrinology, 77, 625-634, 1965). An inflammation is induced in the rat ear by the application of 50 μl of a 1% solution of croton oil in tetrahydrofuran, test compounds being dissolved in the irritant vehicle. After 6 hours the inflammation is assessed by killing the animals and weighing the ears. Topical anti-inflammatory activity of a compound is generally considered to be shown when a significant (5% level) reduction in ear weight is seen compared to non-drug treated control.

[4] = test system: Rat hearts; experiment: Cardiac activity: rat hearts perfused by the Langendorff procedure
Protocol: Rat hearts were perfused by the Langendorff procedure.
Hearts were dissected free within 30 seconds of death and reverse perfused via the aorta and coronary vessels with Krebs-Ringer bicarbonate solution (pH 7.4, 37° C.) gassed with 95% oxygen: 5% carbon dioxide at a flow rate between 8-12 cm^3 /minute. Responses were observed after injection of drug dissolved in isotonic saline into the perfusion media.
Results are expressed as a percentage of the maximum response due to salbutamol.

[5] = test system: Platelet aggregation (response to collagen); experiment: Platelet aggregation inhibition activity: response to intravenous collagen in mice; type: in vivo; details: 1 μ mol/kg po; two hours before collagen 400 μg/kg i.v.
Protocol: Male CFLP mice (ca 20 g, n=8) were dosed orally with compound or vehicle (controls) after an overnight fast. Two hours later each mouse received an intravenous dose of collagen (400 μg/kg, pH 6-6.6). Exactly 30 sec. after injection of collagen, each mouse was placed in a chamber of CO2 until respiration ceased. […] Each concentration was expressed as a percent of that obtained in a tail blood sample taken immediately before injection of collagen.

[6] = test system: genetically obese mice; experiment: Anti-obesity activity: carcass lipid of genetically obese mice after oral gavage daily for 28 days; type: in vivo; details: 12.2 mg/kg p.o. daily for 28 days, control 18.75
Protocol: The compound of Example 5 was administered by oral gavage in water or carboxymethyl-cellulose suspension to genetically obese mice daily for 28 days. At the end of the time the carcass composition was determined.

[7] = 0-3h, read-out: MEAN ENERGY EXPENDITURE (%) 0-3h
[8] = 0-21h, read-out: MEAN ENERGY EXPENDITURE (%) 0-21h
[9] = over 21 hours, read-out: MEAN FOOD INTAKE (%)
[10] = 30 μg added to perfusate, percentage of the maximum response due to salbutamol, read-out: HEART RATE
[11] = 30 μg added to perfusate, percentage of the maximum response due to salbutamol, read-out: HEART TENSION

Structure (SMILES) | response vs control in vivo at 18.5 mg/kg [1, 7] [%] | response vs control in vivo at 18.5 mg/kg [1, 8] [%] | response vs control in vivo at 18.5 mg/kg [1, 9] [%] | inhibition in vivo at 3 µmol/kg ([2]; 3.0 μ mol/kg oral) [%] | ACTIVITY (topical anti-inflammatory) ([3]; 2 mg/rat ear topical) | Emax [4, 10] [%] | Emax [4, 11] [%] | response vs control in vivo at 22.2 mg/kg [1, 7] [%] | response vs control in vivo at 22.2 mg/kg [1, 8] [%] | response vs control in vivo at 22.2 mg/kg [1, 9] [%] | inhibition in vivo at 1 µmol/kg [2] [%] | ACTIVITY (topical anti-inflammatory) ([3]; 0.5 mg/rat ear topical) | Emax ([4]; read-out: HEART TENSION) [%] | response vs control in vivo at 24.5 mg/kg [1, 7] [%] | response vs control in vivo at 24.5 mg/kg [1, 8] [%] | response vs control in vivo at 24.5 mg/kg [1, 9] [%] | % INHIBITION OF RESPONSE TO COLLAGEN [5] [%] | g LIPID/MOUSE, TREATED [6] [g LIPID/MOUSE]
CC(Cc1ccc(OCCO)cc1)NCC(O)c1ccccc1F (stereo not shown) [Example 1, N-[2-(4-(2-Hydroxyethoxy)phenyl)-1-methylethyl]-2-hydroxy-2-(2-fluorophenyl)ethanamine] | 176 | 128 | 70 | 61 | Active | 63 | 53 | – | – | – | – | – | – | – | – | – | – | –
CC(Cc1ccc(OCCCO)cc1)NCC(O)c1cccc(C(F)(F)F)c1 (stereo not shown) [Example 4, N-[2-(4-(3-Hydroxypropoxy)phenyl)-1-methylethyl]-2-hydroxy-2-(3-trifluoromethylphenyl)-ethanamine] | – | – | – | – | – | 7 | – | 179 | 121 | 75 | 31 | Active | 0 | – | – | – | – | –
CC(Cc1ccc(OCCCCCCO)cc1)NCC(O)c1cccc(C(F)(F)F)c1 (stereo not shown) [Example 5, N-[2-(4-(6-Hydroxyhexyloxy)phenyl)-1-methylethyl]-2-hydroxy-2-(3-trifluoromethylphenyl)-ethanamine] | – | – | – | – | – | 0 | 0 | – | – | – | 59 | – | – | 213 | 129 | 103 | 47 | 15.80
